According to patent publication US10799478B2, “Treatment of androgen deprivation therapy associated symptoms” (priority 2014, dated 2020):

What was measured:
[1] = tested on: Orx rats; experiment: Orchidectomized Rat Assay; assay type: in vivo; details: for SV Weight, % Sham: once daily 2 months
[2] = target: T1, human Androgen receptor (Homo sapiens, UniProt P10275); experiment: hAR binding affinity (Ki); details: comparison with R1881
T1 sequence (P10275 1-920): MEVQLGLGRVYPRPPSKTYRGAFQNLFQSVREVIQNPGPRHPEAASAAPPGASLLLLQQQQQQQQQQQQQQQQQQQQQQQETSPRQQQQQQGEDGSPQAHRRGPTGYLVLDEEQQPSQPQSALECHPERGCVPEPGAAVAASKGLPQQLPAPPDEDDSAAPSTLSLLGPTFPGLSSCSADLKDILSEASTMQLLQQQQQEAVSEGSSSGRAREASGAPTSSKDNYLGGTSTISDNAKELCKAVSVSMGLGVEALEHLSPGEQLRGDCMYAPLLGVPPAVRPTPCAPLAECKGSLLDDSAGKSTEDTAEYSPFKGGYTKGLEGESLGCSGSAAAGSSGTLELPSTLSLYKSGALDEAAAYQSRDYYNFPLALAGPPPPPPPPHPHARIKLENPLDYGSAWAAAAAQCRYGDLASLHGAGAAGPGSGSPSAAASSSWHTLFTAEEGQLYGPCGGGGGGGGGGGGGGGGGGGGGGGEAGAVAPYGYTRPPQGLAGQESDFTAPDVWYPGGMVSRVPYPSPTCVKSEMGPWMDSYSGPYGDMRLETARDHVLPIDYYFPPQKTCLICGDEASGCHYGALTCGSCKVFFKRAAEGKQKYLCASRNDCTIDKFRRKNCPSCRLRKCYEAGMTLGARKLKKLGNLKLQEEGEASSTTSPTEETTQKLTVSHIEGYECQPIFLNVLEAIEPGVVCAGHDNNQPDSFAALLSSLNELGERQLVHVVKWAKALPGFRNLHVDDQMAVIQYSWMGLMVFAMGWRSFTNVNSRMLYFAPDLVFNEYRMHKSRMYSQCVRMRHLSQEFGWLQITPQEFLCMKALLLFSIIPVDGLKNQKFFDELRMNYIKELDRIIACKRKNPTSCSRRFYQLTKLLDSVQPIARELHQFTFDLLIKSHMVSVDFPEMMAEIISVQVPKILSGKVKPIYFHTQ

[3] = Four Week Oral Toxicity Study in Rats; assay type: in vivo, rat; details: CD [Crl:CD (SD)], rat
Experimental: (§1) Three treatment groups of 10 male and 10 female CD® [Crl:CD® (SD)] rats are administered the test article at respective dose levels of 15, 150, and 1500 mg/kg/day. […] The test article or vehicle is administered to all groups via oral gavage, once a day for 28 consecutive days, at a dose volume of 15 mL/kg. Additionally, three groups of 18 animals/sex/group serves as toxicokinetic (TK) animals and receives the test article in the same manner and dose volume as the main study groups at respective dose levels of 15, 150, and 1500 mg/kg/day. One additional group of three animals/sex serves as the toxicokinetic control and receives the vehicle in the same manner and dose volume as the treated groups.
(§2) Observations for morbidity, mortality, injury, and the availability of food and water are conducted twice daily for all animals. Observations for clinical signs are conducted weekly for main study animals only. Body weights were measured and recorded weekly for all animals and food consumption is measured and recorded weekly for main study animals. Ophthalmoscopic examinations are conducted pretest on all animals and prior to terminal necropsy for main study animals only. Blood samples for clinical pathology evaluations are collected from all main study animals at necropsy. Urine samples are collected on the last day of dosing. Blood samples for determination of the plasma concentrations of the test article are collected from TK animals at designated time points on Days 1 and 28. After the final blood collection, the TK animals are euthanized and the carcasses are discarded without further evaluation. Liver samples for hepatic enzyme induction analysis are collected at terminal necropsy from main study animals. At study termination, necropsy examinations are performed, organ weights are recorded, and prostate and seminal vesicle tissues are microscopically examined. Additional microscopic examination is performed on the left testis from the first five male rats/group at necropsy.

[4] = tested on: CD [Crl:CD (SD)] rats; experiment: Four Week Oral Toxicity Study in Rats; assay type: in vivo, rat; details: for decrease in albumin / decrease in total protein / increase in alkaline phosphatase: females
Experimental: as §1, §2

[5] = tested on: beagle dogs; experiment: Four Week Oral Toxicity Study in Dogs; assay type: in vivo, dog
Experimental: […] One additional group of three animals/sex serves as the control and receives the vehicle, 80% PEG 3350/20% Vitamin E TPGS (v/v) via oral capsule. The test article or vehicle is administered to all groups via oral capsule, twice a day for 28 consecutive days, at a dose volume of 1.5 mL/kg/dose.
Observations for mortality, morbidity, injury, and the availability of food and water are conducted twice daily for all animals. Detailed clinical observations are conducted weekly. Body weights are measured and recorded the day after receipt, prior to randomization, and weekly during the study. Food consumption is measured and recorded weekly. Ophthalmoscopic examinations are conducted pretest and prior to the terminal necropsy. Physical examinations are conducted pretest. Neurological examinations are conducted during Weeks 1 and 4. ECG examinations are conducted twice prior to the initiation of dosing and prior to and approximately 2 hours (±15 minutes) after the morning test article administration on Days 3 and 26. […] The toxicokinetic parameters are determined for the test article from concentration-time data in the test species. At study termination, necropsy examinations are performed, organ weights are recorded, and testes, epididymis, and prostates are microscopically examined.

[6] = tested on: dogs; experiment: 6 month treatment of dogs (Table 10); assay type: in vivo, dog; details: 6 months

CC(C)OC(=O)N[C@H]1Cc2c(n(Cc3ccccn3)c3ccc(C#N)cc23)C1 (single isomer, unassigned) [Example 1]
LV-TA (cm2) ± SD ([1]; 1 mg/Kg/d): 0.3378 ± 7.08E−03 cm2 | LV-TBMC (mg) ± SD ([1]; 1 mg/Kg/d): 1.54 ± 0.0256 mg | LV-TBMD (mg/cm3) ± SD ([1]; 1 mg/Kg/d): 507.4 ± 6.931 mg/cm3 | SV Weight, % Sham ([1]; 1 mg/Kg/d po): 5.6 % Sham | LV-TA (cm2) ± SD ([1]; 3 mg/Kg/d): 0.362 ± 0.0138 ^ cm2 | LV-TBMC (mg) ± SD ([1]; 3 mg/Kg/d): 1.79 ± 0.095 mg | LV-TBMD (mg/cm3) ± SD ([1]; 3 mg/Kg/d): 549 ± 15.965 mg/cm3 | SV Weight, % Sham ([1]; 3 mg/Kg/d po): 5.5 % Sham | LV-TA (cm2) ± SD ([1]; 10 mg/Kg/d): 0.3521 ± 0.0125 ^ cm2 | LV-TBMC (mg) ± SD ([1]; 10 mg/Kg/d): 1.7757 ± 0.0607 mg | LV-TBMD (mg/cm3) ± SD ([1]; 10 mg/Kg/d): 562.843 ± 16.104 mg/cm3 | SV Weight, % Sham ([1]; 10 mg/Kg/d po): 6.0 % Sham | LV-TA (cm2) ± SD ([1]; 20 mg/Kg/d): 0.3563 ± 0.0102 ^ cm2 | LV-TBMD (mg/cm3) ± SD ([1]; 20 mg/Kg/d): 529.357 ± 10.052 mg/cm3 | SV Weight, % Sham ([1]; 20 mg/Kg/d po): 6.1 % Sham | biochemical binding affinity to the human Androgen receptor [2]: only modestly reduced | NOAEL at 28 days ([3]; both sexes, in vivo, 4 weeks oral gavage, highest dose administered): 1500 mg/kg/day | AUC(0-t) ([3]; female, plasma, oral, females, 1500 mg/kg/day, read-out: Mean steady-state systemic exposure (AUC0-24 hr)): 217 µg·h/mL | systemic exposure (AUC0-24 hr) increase with dose ([4]; 15, 150, 1500 mg/kg/day oral gavage): less-than-dose-proportional | unscheduled deaths ([4]; 15-1500 mg/kg/day, 28 days): no unscheduled deaths | decrease in albumin ([4]; 150 mg/kg/day): 12% | decrease in total protein ([4]; 150 mg/kg/day): 9% | increase in alkaline phosphatase ([4]; 150 mg/kg/day): 1.33 fold | decrease in albumin ([4]; 1500 mg/kg/day): 12% | decrease in total protein ([4]; 1500 mg/kg/day): 10% | increase in alkaline phosphatase ([4]; 1500 mg/kg/day): 1.45 fold | hepatic microsomal enzyme induction ([4]; following 28 days of dosing): no evidence | increase of exposure with dose ([5]; dogs given 6 and 60 mg/kg/day, plateau at 60 mg/kg/day): less than dose proportional | gender effect on exposure ([5]; male vs female dogs): no gender effect | Prostate weight (mean % decrease) ([6]; 3 mg/kg/day): ↓ 63% | Prostate weight (mean % decrease) ([6]; 30 mg/kg/day): ↓ 66% | Prostate weight (mean % decrease) ([6]; 300 mg/kg/day): ↓ 75%
